Consider 50 compounds from PubChem BioAssay AID1996.

The structures appear in SMILES notation. Converted amounts (≈) assume the structure as drawn.

The conditions of the data set: buffer; pH 7.4; 200.0 µM.
Broadly, the kinetic solubility is solubility judged after dilution from a stock solution rather than from solid. The compound `CCN1C(=O)CC(NCc2ccc(S(N)(=O)=O)cc2)C1=O` (stereo not given) came in with a solubility (kinetic) of over 46.7 µg/mL.
As for `Cc1ccc(OCC(=O)Nc2cccc3ccccc23)c([N+](=O)[O-])n1`, the solubility (kinetic) was determined as 31.5 µg/mL (≈ 93.4 µM).
As for `COc1ccccc1-n1c(/C=C/c2ccccn2)nc2ccccc2c1=O`, the figure is 7.3 µg/mL (≈ 20.5 µM).
The compound `Cc1ccccc1CC(=O)NC1CCCc2ccccc21` (stereo not given) came in with a kinetic solubility of 2.7 µg/mL (≈ 9.66 µM).
The compound `Fc1ccc(CNC(=S)NC2CCCCCC2)cc1` displayed a solubility (kinetic) of 28.3 µg/mL (≈ 101 µM).
Turning to `COC(=O)c1ccc(NC(=O)C(=O)c2c[nH]c3ccccc23)cc1`, the kinetic solubility was under 0.3 µg/mL.
As for `CC1CCN(C(=O)COC(=O)c2ccc3ccccc3n2)CC1`, the figure is over 46.9 µg/mL; as for `O=C(Nc1ccc(S(=O)(=O)NC2=NCCCCC2)cc1)c1cccc(S(=O)(=O)N2CCOCC2)c1`, 51.5 µg/mL (≈ 98.9 µM).
As for `O=C(O)C1CCN(C(=O)c2cccc3ccccc23)CC1`, the figure is over 42.5 µg/mL; as for `O=C(Nc1ccc2[nH]c(=O)[nH]c2c1)Nc1ccc(F)cc1F`, 3.7 µg/mL (≈ 12.2 µM).
As for `Cc1csc(NC(=O)c2ccc3c(c2)OCO3)n1`, the figure is 31.4 µg/mL (≈ 120 µM); as for `O=C(OCC(=O)N1CCCC1=O)c1cc2ccccc2o1`, over 43.1 µg/mL.
On to `CCC(C)NC(=O)C1c2ccccc2C(=O)N1Cc1ccc(F)cc1` (stereo not given), for which the solubility (kinetic) was over 51.1 µg/mL.
Compound `c1cc2c(cc1CN1CCNCC1)OCO2` had a kinetic solubility of 31.8 µg/mL (≈ 144 µM).
Compound `COc1ccc2c(c1)CC/C(=C\Nc1ccc3c(c1)OCO3)C2=O` returned a solubility (kinetic) of 11.2 µg/mL (≈ 34.6 µM).
As for `Cc1ccc(NS(=O)(=O)c2cccc3nsnc23)cc1C`, the figure is 39.2 µg/mL (≈ 123 µM); as for `O=C(N/C(=C\c1ccccc1)C(=O)N1CCCCC1)c1ccc(Br)o1`, over 60.5 µg/mL.
The compound `Cc1ccc(C)c(NC(=O)COC(=O)Cc2ccsc2)c1` displayed a kinetic solubility of 42.5 µg/mL (≈ 140 µM).
In the case of `CCOc1cccc(CNCc2ccncc2)c1`, the solubility (kinetic) worked out at 27.4 µg/mL (≈ 113 µM).
Consider `O=C(CSc1nc2ncc(Cl)cc2[nH]1)N1CCOCC1`, for which the solubility (kinetic) is over 46.9 µg/mL.
In the case of `CC(C)On1c(SCC(=O)N(C)C)nc2ccccc2c1=O`, the solubility (kinetic) was over 48.2 µg/mL.
As for `Cc1ccc(C)c(N2N=C(C(=O)O)CCC2=O)c1`, the figure is over 36.9 µg/mL; as for `COC(=O)c1ccccc1NC(=O)c1cc(-c2ccco2)on1`, 0.6 µg/mL (≈ 1.92 µM); as for `CC(C)C(=O)N1CCN(S(=O)(=O)c2ccc3ccccc3c2)CC1`, 23.2 µg/mL (≈ 67 µM).
`O=C1CSC(=Nc2ccc(Cl)cc2)N1Cc1cccnc1` registered a kinetic solubility of 8.3 µg/mL (≈ 26.1 µM).
`Cc1ccc(N2C(=O)CC(Sc3nc(C)cc(C)n3)C2=O)cc1` (stereo not given) displayed a kinetic solubility of 34.7 µg/mL (≈ 106 µM).
Compound `O=C(NCc1cccc(F)c1F)C1CCC(=O)N(C2CC2)C1` (stereo not given) had a solubility (kinetic) of 38.1 µg/mL (≈ 124 µM).
As for `Nc1nc2ccc(C(=O)NCCOC(=O)C3CCCCC3)cc2s1`, the figure is 12.8 µg/mL (≈ 36.8 µM); as for `O=C(NCc1ccccn1)Nc1cc(Cl)ccc1Cl`, 11.9 µg/mL (≈ 40.2 µM).
`CC1(N(O)/C=C2\C=CC=CC2=O)CCCCC1=O` (stereo not given) came in with a solubility (kinetic) of over 37.1 µg/mL.
As for `Cl.NC(=NCCc1ccccc1)NC(=O)c1cc(Cl)ccc1O`, the figure is 10.6 µg/mL; as for `CCC1Oc2ccccc2N(CC(=O)NCC2CCCO2)C1=O` (stereo not given), 44.5 µg/mL (≈ 140 µM).
`CC(=O)NC1(C(F)(F)F)NC(=O)N(c2ccc(F)cc2)C1=O` (stereo not given) yielded a kinetic solubility of over 47.9 µg/mL.
As for `Cc1cc(C)c2nc(N(CCN(C)C)C(=O)c3ccc4ccccc4c3)sc2c1.Cl`, the figure is 2.3 µg/mL; as for `CC(=O)N1C(C(=O)O)Cc2c([nH]c3ccccc23)C1(C)C` (stereo not given), over 42.9 µg/mL.
Regarding `Cc1ccc(C)c(NC(=O)C2C3C=CC(O3)C2C(=O)O)c1` (stereo not given), the solubility (kinetic) is over 43.1 µg/mL.
As for `CCN(CC)CCn1c(NC(=O)c2ccc(C)cc2)nc2ccccc21`, the figure is 25.9 µg/mL (≈ 73.9 µM); as for `CC(=O)Nc1ccc(Oc2nc(-c3ccccn3)nc3ccccc23)cc1`, 6.8 µg/mL (≈ 19.1 µM).
As for `CS(=O)(=O)N1CCc2cc(C(=O)N3CCCC3)ccc21`, the figure is over 44.2 µg/mL; as for `CCOC(=O)C1=C(C)N(C)C(=S)NC1c1c(OCC)ccc2ccccc12` (stereo not given), under 0.4 µg/mL; as for `CCN(CC(=O)NC1CCS(=O)(=O)C1)c1ccc(S(=O)(=O)N(CC)CC)cc1[N+](=O)[O-]` (stereo not given), over 71.5 µg/mL.
In the case of `COc1cc(/C=N/NC(=O)CNC(=O)c2ccncc2)ccc1OC(C)=O`, the kinetic solubility was over 55.6 µg/mL.
In the case of `COC(=O)C1=C(C)OC(N)=C(C#N)C12C(=O)Nc1ccccc12` (stereo not given), the kinetic solubility is over 46.7 µg/mL.
As for `NC(=O)CCN1CCC(c2nc3ccccc3s2)CC1`, the figure is 35.3 µg/mL (≈ 122 µM); as for `O=C(CN1CCCCCC1)NCc1ccccc1`, 34.8 µg/mL (≈ 141 µM); as for `O=C(NS(=O)(=O)c1ccccc1[N+](=O)[O-])c1ccccc1`, over 45.9 µg/mL.
With `CC(C)c1ccc(NC(=O)CN2CCN(c3ccccn3)CC2)cc1`, the solubility (kinetic) came to 1 µg/mL (≈ 2.95 µM).
As for `O=C(COC(=O)c1cc(=O)[nH]c2ccccc12)NC1CCCCC1`, the figure is 4.7 µg/mL (≈ 14.3 µM); as for `O=C(COC(=O)c1cccnc1Cl)NCCc1ccc(F)cc1`, over 50.5 µg/mL.
Turning to `Cc1onc(-c2ccccc2)c1C(=O)Nc1sccc1C#N`, the solubility (kinetic) amounted to 23.5 µg/mL (≈ 76 µM).
